From patent US10435399B2, “HDAC6 inhibitory heterocyclic compound” (TAKEDA PHARMACEUTICAL COMPANY LIMITED, priority 2017, dated 2019)

target: T1, HDAC6 enzyme (Homo sapiens, UniProt Q9UBN7); assay: HDAC6 enzyme inhibitory activity (HDAC-Glo I/II Assay kit); type: biochemical; conditions: 10 μM; wells without enzyme = 100% inhibition
T1 construct: transducing full length HDAC6 gene into Sf-9 insect cells; GST; purchased SignalChem; host or cells: Sf-9 insect cells
T1 sequence (Q9UBN7 1-1215): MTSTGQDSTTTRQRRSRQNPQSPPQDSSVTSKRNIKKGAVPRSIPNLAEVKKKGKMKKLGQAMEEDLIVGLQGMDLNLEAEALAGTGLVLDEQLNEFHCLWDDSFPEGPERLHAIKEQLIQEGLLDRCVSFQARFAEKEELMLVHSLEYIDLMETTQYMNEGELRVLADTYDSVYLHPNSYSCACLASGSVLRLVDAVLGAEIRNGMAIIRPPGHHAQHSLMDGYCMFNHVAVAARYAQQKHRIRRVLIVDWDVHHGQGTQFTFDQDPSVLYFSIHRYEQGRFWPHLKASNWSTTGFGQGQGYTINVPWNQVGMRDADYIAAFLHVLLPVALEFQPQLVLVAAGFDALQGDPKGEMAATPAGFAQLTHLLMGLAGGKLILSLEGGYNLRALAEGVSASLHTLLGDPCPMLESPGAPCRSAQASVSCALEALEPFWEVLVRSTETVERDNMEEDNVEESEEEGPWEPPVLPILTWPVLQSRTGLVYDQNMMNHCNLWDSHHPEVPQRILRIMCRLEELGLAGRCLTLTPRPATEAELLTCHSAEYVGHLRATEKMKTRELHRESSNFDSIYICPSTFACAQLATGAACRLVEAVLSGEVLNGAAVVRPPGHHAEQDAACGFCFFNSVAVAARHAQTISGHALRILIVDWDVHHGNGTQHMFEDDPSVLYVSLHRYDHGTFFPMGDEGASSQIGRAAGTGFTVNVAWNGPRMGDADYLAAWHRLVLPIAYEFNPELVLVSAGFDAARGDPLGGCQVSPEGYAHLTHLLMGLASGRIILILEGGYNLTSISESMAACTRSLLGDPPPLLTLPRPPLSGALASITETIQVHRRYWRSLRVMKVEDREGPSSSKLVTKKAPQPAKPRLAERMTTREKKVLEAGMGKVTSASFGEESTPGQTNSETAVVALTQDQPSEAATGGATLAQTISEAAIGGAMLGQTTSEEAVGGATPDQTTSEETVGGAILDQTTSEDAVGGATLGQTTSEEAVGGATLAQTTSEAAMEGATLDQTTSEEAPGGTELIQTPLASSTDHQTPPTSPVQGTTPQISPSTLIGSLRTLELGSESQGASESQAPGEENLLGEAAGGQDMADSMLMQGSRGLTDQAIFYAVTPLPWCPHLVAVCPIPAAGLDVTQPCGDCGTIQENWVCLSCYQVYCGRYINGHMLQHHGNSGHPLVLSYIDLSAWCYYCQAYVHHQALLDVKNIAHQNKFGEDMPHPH
Summary of the method: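 Luminescence read-out after 20 min reaction with HDAC-Glo substrate-developer, following 60 min room-temperature preincubation of compound with Sf-9-expressed, GST-purified full-length enzyme. Inhibition is relative to no-enzyme wells set as 100%.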

Q: With `O=C1c2cc(-c3nnc(C(F)F)o3)ccc2CN1N1CCC(F)(F)CC1c1ccccc1` (stereo not drawn) [Example 554, 6-(5-(difluoromethyl)-1,3,4-oxadiazol-2-yl)-2-(4,4-difluoro-2-phenylpiperidin-1-yl)isoindolin-1-one (optical isomer)] as the molecule, how does the “HDAC6 inhibitory rate (%) (10 μM)” value read?
A: The value was 100%.

Q: For `O=C1c2cc(-c3nnc(C(F)F)o3)cnc2CN1[C@@H]1COCC[C@H]1Oc1cc(F)cc(F)c1` [Example 651, 1,5-anhydro-2,4-dideoxy-2-(3-(5-(difluoromethyl)-1,3,4-oxadiazol-2-yl)-5-oxo-5,7-dihydro-6H-pyrrolo[3,4-b]pyridin-6-yl)-3-O-(3,5-difluorophenyl)-threo-pentitol (optical isomer)], which “HDAC6 inhibitory rate (%) (10 μM)” value is on record?
A: The value was 100%.

same assay, conditions: 10 μM; wells without enzyme = 100% inhibition; read-out: HDAC6 inhibitory rate (%) (10 μM)

Q: For `O=C1c2cc(-c3nnc(C(F)F)o3)ccc2CN1[C@@H]1CCOC[C@H]1NCC(F)(F)F` [Example 399, 6-(5-(difluoromethyl)-1,3,4-oxadiazol-2-yl)-2-((3S,4R)-3-((2,2,2-trifluoroethyl)amino)tetrahydro-2H-pyran-4-yl)isoindolin-1-one], which inhibition at 10 µM is on record?
A: The inhibition at 10 µM was 101%.

Q: `O=C1CCCN1[C@@H]1CCCC[C@H]1N1Cc2ccc(-c3nnc(C(F)F)o3)cc2C1=O` [Example 2, 6-(5-(difluoromethyl)-1,3,4-oxadiazol-2-yl)-2-((1R,2R)-2-(2-oxopyrrolidin-1-yl)cyclohexyl)isoindolin-1-one] was tested. Which inhibition at 10 µM did it give?
A: Its inhibition at 10 µM is 99%.

Q: For `O=C(O[C@@H]1CCCC[C@H]1N1Cc2ccc(-c3nnc(C(F)F)o3)cc2C1=O)N1CCC1` [Example 232, (1R,2R)-2-(6-(5-(difluoromethyl)-1,3,4-oxadiazol-2-yl)-1-oxo-1,3-dihydro-2H-isoindol-2-yl)-cyclohexyl azetidine-1-carboxylate], which inhibition at 10 µM is on record?
A: Its inhibition at 10 µM is 98%.

Q: With `O=C1c2cc(-c3nnc(C(F)F)o3)cnc2CN1[C@H]1CCCC[C@H]1n1cccn1` (racemic) [Example 541, 3-(5-(difluoromethyl)-1,3,4-oxadiazol-2-yl)-6-((1SR,2RS)-2-(1H-pyrazol-1-yl)cyclohexyl)-6,7-dihydro-5H-pyrrolo[3,4-b]pyridin-5-one] as the molecule, how does the inhibition at 10 µM read?
A: Its inhibition at 10 µM is 99%.

Q: How did the inhibition at 10 µM turn out when `O=C1c2cc(-c3nnc(C(F)F)o3)ccc2CN1c1ccc(F)cc1C1CCC(NC(=O)C(F)(F)C(F)(F)F)CC1` (stereo not shown) [Example 534, N-(4-(2-(6-(5-(difluoromethyl)-1,3,4-oxadiazol-2-yl)-1-oxo-1,3-dihydro-2H-isoindol-2-yl)-5-fluorophenyl)cyclohexyl)-2,2,3,3,3-pentafluoropropanamide] was run?
A: Its inhibition at 10 µM is 100%.

Q: For `O=C1c2cc(-c3nnc(C(F)F)o3)ccc2CN1[C@@H]1CCCC[C@H]1Oc1cncc(F)c1` (racemic) [Example 559, 6-(5-(difluoromethyl)-1,3,4-oxadiazol-2-yl)-2-((1RS,2RS)-2-((5-fluoropyridin-3-yl)oxy)cyclohexyl)isoindolin-1-one], which inhibition at 10 µM is on record?
A: Its inhibition at 10 µM is 100%.

Q: How did the inhibition at 10 µM turn out when `O=C1c2cc(-c3nnc(C(F)F)o3)ccc2CN1Cc1ncccc1Cl` [Example 143, 2-((3-chloropyridin-2-yl)methyl)-6-(5-(difluoromethyl)-1,3,4-oxadiazol-2-yl)isoindolin-1-one] was run?
A: Its inhibition at 10 µM is 95%.

Q: Which inhibition at 10 µM does the source give for `O=C1c2ccccc2CN1[C@@H]1CCCC[C@H]1N1Cc2ccc(-c3nnc(C(F)F)o3)cc2C1=O` [Example 14, 6-(5-(difluoromethyl)-1,3,4-oxadiazol-2-yl)-2-((1R,2R)-2-(1-oxo-1,3-dihydro-2H-isoindol-2-yl)cyclohexyl)isoindolin-1-one] here?
A: Its inhibition at 10 µM is 100%.

Q: `O=C(N[C@@H]1CCCC[C@H]1N1Cc2ccc(-c3nnc(C(F)F)o3)cc2C1=O)[C@@H]1CCCO1` [Example 93, (2S)-N-((1R,2R)-2-(6-(5-(difluoromethyl)-1,3,4-oxadiazol-2-yl)-1-oxo-1,3-dihydro-2H-isoindol-2-yl)cyclohexyl)tetrahydrofuran-2-carboxamide] was tested. Which inhibition at 10 µM did it give?
A: Its inhibition at 10 µM is 100%.

Q: `CC(F)(F)C(=O)N[C@@H]1CCCC[C@H]1N1Cc2ccc(-c3nnc(C(F)F)o3)cc2C1=O` [Example 40, N-((1R,2R)-2-(6-(5-(difluoromethyl)-1,3,4-oxadiazol-2-yl)-1-oxo-1,3-dihydro-2H-isoindol-2-yl)cyclohexyl)-2,2-difluoropropanamide] was tested. Which inhibition at 10 µM did it give?
A: The inhibition at 10 µM was 100%.

Q: Which inhibition at 10 µM does the source give for `CC(F)(F)C(=O)N[C@@H]1CC(F)(F)CC[C@H]1N1Cc2ccc(-c3nnc(C(F)F)o3)cc2C1=O` [Example 470, N-((1R,2R)-2-(6-(5-(difluoromethyl)-1,3,4-oxadiazol-2-yl)-1-oxo-1,3-dihydro-2H-isoindol-2-yl)-5,5-difluorocyclohexyl)-2,2-difluoropropanamide] here?
A: The inhibition at 10 µM was 101%.

Q: With `Cc1cn2cc(-c3ccccc3N3Cc4ccc(-c5nnc(C(F)F)o5)cc4C3=O)ccc2n1` [Example 306, 6-(5-(difluoromethyl)-1,3,4-oxadiazol-2-yl)-2-(2-(2-methylimidazo[1,2-a]-pyridin-6-yl)phenyl)-isoindolin-1-one] as the molecule, how does the inhibition at 10 µM read?
A: Its inhibition at 10 µM is 101%.

Q: How did the inhibition at 10 µM turn out when `O=C1c2cc(-c3nnc(C(F)F)o3)ccc2CN1c1ccccc1-c1cncc(C(F)(F)F)c1` [Example 297, 6-(5-(difluoromethyl)-1,3,4-oxadiazol-2-yl)-2-(2-(5-(trifluoromethyl)pyridin-3-yl)phenyl)isoindolin-1-one] was run?
A: Its inhibition at 10 µM is 98%.

Q: How did the inhibition at 10 µM turn out when `O=C(N[C@@H]1[C@H](N2Cc3ccc(-c4nnc(C(F)F)o4)cc3C2=O)CCCC1(F)F)C(F)F` [Example 629, N-((1R,6R)-6-(6-(5-(difluoromethyl)-1,3,4-oxadiazol-2-yl)-1-oxo-1,3-dihydro-2H-isoindol-2-yl)-2,2-difluorocyclohexyl)-2,2-difluoroacetamide] was run?
A: Its inhibition at 10 µM is 100%.

Q: With `O=C1c2cc(-c3nnc(C(F)F)o3)ccc2CN1[C@@H]1CCN(C(=O)C2(F)CC2)C[C@H]1c1ccc(F)cc1` [Example 507, 6-(5-(difluoro-methyl)-1,3,4-oxadiazol-2-yl)-2-((3R,4R)-1-((1-fluorocyclo-propyl)carbonyl)-3-(4-fluoro-phenyl)piperidin-4-yl)isoindolin-1-one] as the molecule, how does the inhibition at 10 µM read?
A: The inhibition at 10 µM was 100%.

Q: For `CCC(=O)N[C@@H]1COCC[C@H]1N1Cc2c(F)cc(-c3nnc(C(F)F)o3)cc2C1=O` [Example 191, N-((3S,4R)-4-(6-(5-(difluoromethyl)-1,3,4-oxadiazol-2-yl)-4-fluoro-1-oxo-1,3-dihydro-2H-isoindol-2-yl)tetrahydro-2H-pyran-3-yl)propanamide], which inhibition at 10 µM is on record?
A: Its inhibition at 10 µM is 101%.

Q: For `COC(=O)N1CC[C@@H](N2Cc3ncc(-c4nnc(C(F)F)o4)cc3C2=O)[C@H](c2ccc(F)c(F)c2)C1` [Example 499, methyl (3R,4R)-4-(3-(5-(difluoro-methyl)-1,3,4-oxadiazol-2-yl)-5-oxo-5,7-dihydro-6H-pyrrolo[3,4-b]pyridin-6-yl)-3-(3,4-difluoro-phenyl) piperidine-1-carboxylate], which inhibition at 10 µM is on record?
A: Its inhibition at 10 µM is 99%.

Q: Which inhibition at 10 µM does the source give for `O=C1c2cc(-c3nnc(C(F)F)o3)cc(F)c2CN1c1ccccc1Br` [Example 372, 2-(2-bromophenyl)-6-(5-(difluoromethyl)-1,3,4-oxadiazol-2-yl)-4-fluoroisoindolin-1-one] here?
A: The inhibition at 10 µM was 92%.

Q: For `O=C(N[C@@H]1CCCC[C@H]1N1Cc2ccc(-c3nnc(C(F)F)o3)cc2C1=O)[C@@H]1C[C@H]1F` (racemic) [Example 69, (1SR,2RS)-N-((1R,2R)-2-(6-(5-(difluoromethyl)-1,3,4-oxadiazol-2--yl)-1-oxo-1,3-dihydro-2H-isoindol-2-yl)cyclohexyl)-2-fluorocyclopropanecarboxamide], which inhibition at 10 µM is on record?
A: Its inhibition at 10 µM is 101%.

Q: `O=C(CC1(O)CCCC1)N[C@@H]1CCCC[C@H]1N1Cc2ccc(-c3nnc(C(F)F)o3)cc2C1=O` [Example 26, N-((1R,2R)-2-(6-(5-(difluoromethyl)-1,3,4-oxadiazol-2-yl)-1-oxo-1,3-dihydro-2H-isoindol-2-yl)cyclohexyl)-2-(1-hydroxycyclopentyl)acetamide] was tested. Which inhibition at 10 µM did it give?
A: The inhibition at 10 µM was 98%.
